SMILES strings stand for the structures. “And” between values parts separate entries of the source, which are not always exact repeats. Equal values may be shown once.

We go through two compounds from patent US20060216693A1, “Method of screening compounds which inhibit the initiation of the retrotranscription of the rna of virus hiv-1 and means for implementing same” (priority 2003, published 2006).

In experiment [1] the target is HIV-1 reverse transcriptase (Human immunodeficiency virus type 1 group M subtype B, UniProt P04585). Conditions: selectivity measured in initiation and elongation (Rigourd and al., 2000); cited from earlier work.
Experiment [2] has as its system HIV-1 reverse transcriptase. In words: Synthesis of product corresponding to reverse transcription initiation (addition of first 6 nucleotides to biotinylated tRNAHis primer), scintillation proximity assay. It counts as biochemical. Conditions: calculated. The protocol:
FIG. 7: (−) Synthesis of a Product Corresponding to Retrotranscription Initiation from Biotinylated vRNA complex [His-AC-GAC]/tRNA^His
The signal attenuation is detected with […] of AZTTP. The numbers in bold and italic on the top of histograms corresponds to the percent of residual signal compared to the control without inhibitor.
Reactions are stopped by adding EDTA 25 mM and extension product detection is performed as previously described.

Experiment [3] has as its system HIV-1 reverse transcriptase. Conditions: 5 μM inhibitor, 5 μM each dNTP, 30 minute-reaction, 37° C.

Consider `Cc1cn([C@H]2C[C@H](N=[N+]=[N-])[C@@H](CO[P@](=O)(O)O[P@](=O)(O)OP(=O)(O)O)O2)c(=O)[nH]c1=O` [AZTTP], for which the “AZTTP incorporation selectivity against dTTP” value in experiment [1] was 0.6 and 0.7. The Theoretical signal in experiment [2] ([dTTP]/[AZTTP] = 2, selectivity (AZTTP/dTTP) = 0.6) is 60.7%; in experiment [2] ([dTTP]/[AZTTP] = 2, selectivity (AZTTP/dTTP) = 0.7), 56.7%; in experiment [2] ([dTTP]/[AZTTP] = 50, selectivity (AZTTP/dTTP) = 0.6) it was 97.7%; in experiment [2] ([dTTP]/[AZTTP] = 50, selectivity (AZTTP/dTTP) = 0.7), 97.3%. For the same compound, the “inhibition rate of (−) strand strong-stop DNA synthesis” value in experiment [3] was “about 90%”.
As to `Cc1cn([C@H]2C=C[C@@H](COP(=O)(O)OP(=O)(O)OP(=O)(O)O)O2)c(=O)[nH]c1=O` [d4TTP], in experiment [3], the “inhibition rate of (−) strand strong-stop DNA synthesis” value came to 80%.
